Like-named read-outs stand apart in the source and are kept apart here.
Key:
Type in all cases: biochemical
IKKe = target: T1, IKKe (Homo sapiens, UniProt Q14164); experiment: Kinase profiling IKKe; conditions: for remaining activity at 100 µM: read-out: residual kinase activity, IKKe
T1 sequence (Q14164 1-716): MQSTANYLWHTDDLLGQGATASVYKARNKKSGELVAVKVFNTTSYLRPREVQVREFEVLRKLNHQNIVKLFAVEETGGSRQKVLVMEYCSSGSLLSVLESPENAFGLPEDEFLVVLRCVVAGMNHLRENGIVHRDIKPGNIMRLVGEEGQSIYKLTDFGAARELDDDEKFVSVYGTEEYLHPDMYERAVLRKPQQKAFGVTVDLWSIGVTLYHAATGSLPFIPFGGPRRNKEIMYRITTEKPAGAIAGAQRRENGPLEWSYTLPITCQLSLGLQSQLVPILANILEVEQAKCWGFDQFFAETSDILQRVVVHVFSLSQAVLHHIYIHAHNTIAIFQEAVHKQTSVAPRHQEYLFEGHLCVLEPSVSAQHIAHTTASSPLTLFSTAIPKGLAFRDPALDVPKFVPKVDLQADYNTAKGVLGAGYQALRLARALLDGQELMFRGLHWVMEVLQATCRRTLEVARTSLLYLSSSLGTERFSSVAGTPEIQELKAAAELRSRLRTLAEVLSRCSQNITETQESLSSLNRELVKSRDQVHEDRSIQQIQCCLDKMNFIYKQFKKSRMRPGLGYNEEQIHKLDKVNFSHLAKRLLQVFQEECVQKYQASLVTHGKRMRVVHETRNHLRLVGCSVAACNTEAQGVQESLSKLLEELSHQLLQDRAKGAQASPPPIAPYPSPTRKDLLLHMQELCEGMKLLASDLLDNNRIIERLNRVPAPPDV
Text: (§1) Any value less that 25 is considered to be highly significant inhibition.

PAK2 = PAK2 (Homo sapiens, UniProt Q13177); experiment: Kinase profiling PAK2; conditions: for remaining activity at 100 µM: read-out: residual kinase activity, PAK2
PAK2, sequence (Q13177 whole entry, species assumed): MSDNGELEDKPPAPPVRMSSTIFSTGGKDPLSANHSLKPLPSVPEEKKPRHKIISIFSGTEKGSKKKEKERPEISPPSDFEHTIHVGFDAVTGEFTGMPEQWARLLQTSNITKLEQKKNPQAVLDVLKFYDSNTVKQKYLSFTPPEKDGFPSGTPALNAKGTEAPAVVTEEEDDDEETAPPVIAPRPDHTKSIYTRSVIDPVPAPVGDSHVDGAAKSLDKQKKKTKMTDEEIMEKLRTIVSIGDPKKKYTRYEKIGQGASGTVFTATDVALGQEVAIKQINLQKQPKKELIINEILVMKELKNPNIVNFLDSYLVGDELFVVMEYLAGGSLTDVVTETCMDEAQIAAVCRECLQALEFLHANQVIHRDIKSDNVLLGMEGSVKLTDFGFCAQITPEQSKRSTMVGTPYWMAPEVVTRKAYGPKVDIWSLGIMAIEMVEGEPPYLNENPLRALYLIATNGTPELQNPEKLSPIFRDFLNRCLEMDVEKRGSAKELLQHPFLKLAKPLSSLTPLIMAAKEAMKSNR
Text: as §1

HIPK3 = HIPK3 (Homo sapiens, UniProt Q9H422); experiment: Kinase profiling HIPK3; conditions: for remaining activity at 100 µM: read-out: residual kinase activity, HIPK3
HIPK3, sequence (Q9H422 whole entry, species assumed): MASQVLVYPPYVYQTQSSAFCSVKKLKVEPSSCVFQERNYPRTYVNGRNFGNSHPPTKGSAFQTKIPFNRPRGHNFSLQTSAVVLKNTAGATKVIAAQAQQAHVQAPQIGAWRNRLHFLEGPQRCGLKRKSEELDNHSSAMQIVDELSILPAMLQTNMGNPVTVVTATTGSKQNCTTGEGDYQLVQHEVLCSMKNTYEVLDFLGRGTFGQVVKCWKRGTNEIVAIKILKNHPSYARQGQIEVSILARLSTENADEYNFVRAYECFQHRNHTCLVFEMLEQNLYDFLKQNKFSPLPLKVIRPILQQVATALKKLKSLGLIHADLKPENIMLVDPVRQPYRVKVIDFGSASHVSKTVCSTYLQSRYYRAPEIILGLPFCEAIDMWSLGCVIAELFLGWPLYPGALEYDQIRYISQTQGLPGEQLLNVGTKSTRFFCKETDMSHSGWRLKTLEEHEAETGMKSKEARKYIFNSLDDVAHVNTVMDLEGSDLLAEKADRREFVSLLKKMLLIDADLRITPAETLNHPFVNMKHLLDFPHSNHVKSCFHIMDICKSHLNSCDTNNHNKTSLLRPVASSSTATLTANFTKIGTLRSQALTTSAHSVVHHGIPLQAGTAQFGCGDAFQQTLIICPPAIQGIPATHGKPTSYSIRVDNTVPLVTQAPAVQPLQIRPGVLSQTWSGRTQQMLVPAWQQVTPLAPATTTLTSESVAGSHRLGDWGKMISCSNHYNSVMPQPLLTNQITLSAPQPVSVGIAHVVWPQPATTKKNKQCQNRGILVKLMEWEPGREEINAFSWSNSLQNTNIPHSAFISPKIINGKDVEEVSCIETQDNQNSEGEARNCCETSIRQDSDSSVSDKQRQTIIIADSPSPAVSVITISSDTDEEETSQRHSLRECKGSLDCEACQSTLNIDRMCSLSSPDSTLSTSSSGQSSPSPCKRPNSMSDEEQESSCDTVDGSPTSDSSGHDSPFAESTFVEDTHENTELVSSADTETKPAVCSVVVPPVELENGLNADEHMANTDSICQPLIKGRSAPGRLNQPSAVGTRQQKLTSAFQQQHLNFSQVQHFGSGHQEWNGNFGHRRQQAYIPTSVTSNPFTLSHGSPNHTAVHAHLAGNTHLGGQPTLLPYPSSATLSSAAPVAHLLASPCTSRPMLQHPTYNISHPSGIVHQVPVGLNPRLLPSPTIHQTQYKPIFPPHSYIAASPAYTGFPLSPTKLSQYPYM
Text: as §1

TESK1 = TESK1 (Homo sapiens, UniProt Q15569); experiment: Kinase profiling TESK1; conditions: for remaining activity at 100 µM: read-out: residual kinase activity, TESK1
TESK1, sequence (Q15569 whole entry, species assumed): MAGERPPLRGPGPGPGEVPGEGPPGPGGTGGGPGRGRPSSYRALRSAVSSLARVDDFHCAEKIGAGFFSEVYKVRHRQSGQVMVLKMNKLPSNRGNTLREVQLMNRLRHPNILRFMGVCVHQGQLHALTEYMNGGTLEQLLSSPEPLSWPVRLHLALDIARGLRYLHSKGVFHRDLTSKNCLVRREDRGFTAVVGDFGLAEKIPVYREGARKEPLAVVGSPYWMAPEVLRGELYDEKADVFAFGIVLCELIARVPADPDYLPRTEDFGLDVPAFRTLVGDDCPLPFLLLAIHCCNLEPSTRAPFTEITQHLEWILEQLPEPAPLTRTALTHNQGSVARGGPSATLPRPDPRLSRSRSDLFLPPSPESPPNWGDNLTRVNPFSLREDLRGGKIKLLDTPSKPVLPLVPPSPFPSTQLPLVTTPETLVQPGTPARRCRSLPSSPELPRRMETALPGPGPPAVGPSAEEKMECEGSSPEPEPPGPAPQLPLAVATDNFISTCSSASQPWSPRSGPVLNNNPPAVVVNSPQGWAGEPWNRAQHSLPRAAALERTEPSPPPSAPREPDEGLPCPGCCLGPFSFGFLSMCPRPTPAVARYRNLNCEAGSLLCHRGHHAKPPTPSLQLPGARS
Text: as §1

TSSK1 = target: T2, TSSK1 (Homo sapiens, UniProt Q9BXA7); experiment: Kinase profiling TSSK1; conditions: for remaining activity at 100 µM: read-out: residual kinase activity, TSSK1
T2 sequence (Q9BXA7 1-367): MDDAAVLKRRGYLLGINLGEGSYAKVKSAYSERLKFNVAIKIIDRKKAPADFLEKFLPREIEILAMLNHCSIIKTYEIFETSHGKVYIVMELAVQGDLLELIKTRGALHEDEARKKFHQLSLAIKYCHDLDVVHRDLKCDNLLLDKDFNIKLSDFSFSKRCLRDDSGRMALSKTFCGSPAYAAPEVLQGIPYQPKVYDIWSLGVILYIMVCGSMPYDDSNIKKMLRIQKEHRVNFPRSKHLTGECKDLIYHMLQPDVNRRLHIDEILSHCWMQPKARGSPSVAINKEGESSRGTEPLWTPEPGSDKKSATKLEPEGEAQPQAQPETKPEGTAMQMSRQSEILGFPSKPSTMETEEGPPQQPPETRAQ
Text: as §1

MINK1 = MINK1 (Homo sapiens, UniProt Q8N4C8); experiment: Kinase profiling MINK1; conditions: for remaining activity at 100 µM: read-out: residual kinase activity, MINK1
MINK1, sequence (Q8N4C8 whole entry, species assumed): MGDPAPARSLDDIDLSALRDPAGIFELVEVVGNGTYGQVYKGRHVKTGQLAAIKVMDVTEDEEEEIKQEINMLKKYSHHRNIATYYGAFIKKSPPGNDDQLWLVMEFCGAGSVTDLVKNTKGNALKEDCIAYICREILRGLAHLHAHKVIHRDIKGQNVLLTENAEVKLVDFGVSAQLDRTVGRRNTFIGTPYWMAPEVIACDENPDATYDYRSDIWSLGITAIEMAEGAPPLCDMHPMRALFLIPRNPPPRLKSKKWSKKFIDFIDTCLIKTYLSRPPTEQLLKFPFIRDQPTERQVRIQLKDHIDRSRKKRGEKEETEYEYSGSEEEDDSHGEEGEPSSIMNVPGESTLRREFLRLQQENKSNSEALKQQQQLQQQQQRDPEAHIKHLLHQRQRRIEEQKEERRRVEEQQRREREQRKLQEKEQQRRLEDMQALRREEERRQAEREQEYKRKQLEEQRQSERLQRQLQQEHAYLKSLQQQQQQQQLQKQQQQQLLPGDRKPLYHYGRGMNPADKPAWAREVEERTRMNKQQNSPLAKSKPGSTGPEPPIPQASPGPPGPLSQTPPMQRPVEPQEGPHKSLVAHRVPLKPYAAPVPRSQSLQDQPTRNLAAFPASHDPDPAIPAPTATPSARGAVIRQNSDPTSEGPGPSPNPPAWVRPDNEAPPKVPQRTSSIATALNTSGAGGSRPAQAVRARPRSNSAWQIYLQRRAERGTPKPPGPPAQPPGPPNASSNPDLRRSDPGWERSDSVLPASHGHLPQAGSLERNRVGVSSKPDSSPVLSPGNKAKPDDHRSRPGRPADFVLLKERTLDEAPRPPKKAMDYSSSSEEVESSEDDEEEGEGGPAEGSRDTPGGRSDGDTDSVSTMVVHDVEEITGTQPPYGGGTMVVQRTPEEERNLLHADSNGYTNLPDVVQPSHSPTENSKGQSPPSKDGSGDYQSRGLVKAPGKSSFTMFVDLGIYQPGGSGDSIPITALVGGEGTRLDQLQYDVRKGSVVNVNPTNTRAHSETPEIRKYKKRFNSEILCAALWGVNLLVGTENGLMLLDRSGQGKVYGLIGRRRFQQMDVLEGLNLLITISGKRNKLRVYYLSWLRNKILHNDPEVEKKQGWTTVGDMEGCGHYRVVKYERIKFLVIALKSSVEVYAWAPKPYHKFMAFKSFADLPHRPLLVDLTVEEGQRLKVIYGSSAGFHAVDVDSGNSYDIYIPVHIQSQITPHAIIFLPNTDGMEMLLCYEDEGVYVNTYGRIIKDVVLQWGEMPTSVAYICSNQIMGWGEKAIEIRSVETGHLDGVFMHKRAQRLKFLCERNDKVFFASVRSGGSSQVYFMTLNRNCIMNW
Text: as §1

FGF-R1 = FGF-R1 (Homo sapiens, UniProt P11362); experiment: Kinase profiling FGF-R1; conditions: for remaining activity at 100 µM: read-out: residual kinase activity, FGF-R1
Text: as §1

PAK6 = PAK6 (Homo sapiens, UniProt Q9NQU5); experiment: Kinase profiling PAK6; conditions: for remaining activity at 100 µM: read-out: residual kinase activity, PAK6
Text: as §1

DAPK1 = DAPK1 (Homo sapiens, UniProt P53355); experiment: Kinase profiling DAPK1; conditions: for remaining activity at 100 µM: read-out: residual kinase activity, DAPK1
DAPK1, sequence (P53355 whole entry, species assumed): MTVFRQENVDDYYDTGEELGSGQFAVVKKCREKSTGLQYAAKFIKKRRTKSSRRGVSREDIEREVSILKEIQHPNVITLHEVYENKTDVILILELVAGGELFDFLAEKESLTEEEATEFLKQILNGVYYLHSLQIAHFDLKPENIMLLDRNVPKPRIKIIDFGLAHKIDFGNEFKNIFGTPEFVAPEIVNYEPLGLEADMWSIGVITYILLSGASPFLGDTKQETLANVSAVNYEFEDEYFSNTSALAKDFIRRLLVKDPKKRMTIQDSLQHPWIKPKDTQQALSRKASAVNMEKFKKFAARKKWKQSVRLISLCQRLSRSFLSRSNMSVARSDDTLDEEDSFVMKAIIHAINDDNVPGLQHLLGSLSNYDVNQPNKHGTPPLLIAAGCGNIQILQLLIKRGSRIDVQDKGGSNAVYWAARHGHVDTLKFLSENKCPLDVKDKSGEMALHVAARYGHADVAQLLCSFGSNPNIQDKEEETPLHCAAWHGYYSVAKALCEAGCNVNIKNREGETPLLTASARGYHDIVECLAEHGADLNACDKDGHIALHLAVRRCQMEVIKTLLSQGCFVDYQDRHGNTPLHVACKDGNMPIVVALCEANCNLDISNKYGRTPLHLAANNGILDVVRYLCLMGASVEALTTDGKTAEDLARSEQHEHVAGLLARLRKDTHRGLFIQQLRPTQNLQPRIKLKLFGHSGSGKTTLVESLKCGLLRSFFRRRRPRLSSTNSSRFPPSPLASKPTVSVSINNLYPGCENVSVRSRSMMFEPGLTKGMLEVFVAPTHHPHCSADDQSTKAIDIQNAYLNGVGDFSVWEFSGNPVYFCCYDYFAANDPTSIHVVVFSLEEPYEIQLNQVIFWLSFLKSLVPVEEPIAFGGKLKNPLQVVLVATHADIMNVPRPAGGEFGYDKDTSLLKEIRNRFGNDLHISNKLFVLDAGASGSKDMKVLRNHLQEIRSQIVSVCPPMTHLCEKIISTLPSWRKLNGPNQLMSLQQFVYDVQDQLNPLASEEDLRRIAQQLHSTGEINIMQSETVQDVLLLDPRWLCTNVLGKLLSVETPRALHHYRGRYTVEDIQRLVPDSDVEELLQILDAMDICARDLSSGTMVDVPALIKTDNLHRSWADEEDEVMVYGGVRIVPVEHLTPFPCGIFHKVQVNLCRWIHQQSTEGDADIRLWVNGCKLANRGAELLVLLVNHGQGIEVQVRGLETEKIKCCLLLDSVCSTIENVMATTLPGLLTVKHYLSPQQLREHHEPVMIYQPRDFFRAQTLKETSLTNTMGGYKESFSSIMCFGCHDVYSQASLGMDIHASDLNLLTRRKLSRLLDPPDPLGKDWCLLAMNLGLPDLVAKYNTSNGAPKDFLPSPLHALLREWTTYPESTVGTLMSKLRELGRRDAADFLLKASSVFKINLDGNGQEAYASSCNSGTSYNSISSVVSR
Text: as §1

BRSK1 = target: T3, BRSK1 (Homo sapiens, UniProt Q8TDC3); experiment: Kinase profiling BRSK1; conditions: for remaining activity at 100 µM: read-out: residual kinase activity, BRSK1
T3 sequence (Q8TDC3 1-778): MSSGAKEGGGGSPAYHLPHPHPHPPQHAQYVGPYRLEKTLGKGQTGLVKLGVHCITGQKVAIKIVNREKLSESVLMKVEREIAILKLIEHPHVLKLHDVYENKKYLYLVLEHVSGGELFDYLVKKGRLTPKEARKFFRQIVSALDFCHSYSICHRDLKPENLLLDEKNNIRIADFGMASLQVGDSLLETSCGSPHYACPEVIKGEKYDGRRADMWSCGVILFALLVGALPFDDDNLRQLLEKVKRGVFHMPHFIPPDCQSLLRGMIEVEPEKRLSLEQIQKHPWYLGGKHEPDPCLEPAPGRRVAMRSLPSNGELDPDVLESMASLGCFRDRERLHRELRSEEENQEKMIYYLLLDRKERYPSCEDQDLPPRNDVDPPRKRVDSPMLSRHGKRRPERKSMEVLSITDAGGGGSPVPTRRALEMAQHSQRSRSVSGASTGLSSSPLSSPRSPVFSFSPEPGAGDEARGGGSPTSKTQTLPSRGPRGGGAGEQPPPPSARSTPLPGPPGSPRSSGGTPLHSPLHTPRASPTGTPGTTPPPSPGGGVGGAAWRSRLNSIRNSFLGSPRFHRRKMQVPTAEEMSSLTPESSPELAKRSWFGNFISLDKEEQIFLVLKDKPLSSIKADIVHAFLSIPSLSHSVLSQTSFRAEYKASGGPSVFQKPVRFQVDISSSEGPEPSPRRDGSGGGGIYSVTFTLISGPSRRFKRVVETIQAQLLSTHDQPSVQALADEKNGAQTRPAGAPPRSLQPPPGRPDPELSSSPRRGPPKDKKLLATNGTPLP
Text: as §1

TGFBR1 = target: T4, TGFBR1 (Homo sapiens, UniProt P36897); experiment: Kinase profiling TGFBR1; conditions: 100 micromolar inhibitor concentration; 100 is no change
T4 sequence (P36897 34-503): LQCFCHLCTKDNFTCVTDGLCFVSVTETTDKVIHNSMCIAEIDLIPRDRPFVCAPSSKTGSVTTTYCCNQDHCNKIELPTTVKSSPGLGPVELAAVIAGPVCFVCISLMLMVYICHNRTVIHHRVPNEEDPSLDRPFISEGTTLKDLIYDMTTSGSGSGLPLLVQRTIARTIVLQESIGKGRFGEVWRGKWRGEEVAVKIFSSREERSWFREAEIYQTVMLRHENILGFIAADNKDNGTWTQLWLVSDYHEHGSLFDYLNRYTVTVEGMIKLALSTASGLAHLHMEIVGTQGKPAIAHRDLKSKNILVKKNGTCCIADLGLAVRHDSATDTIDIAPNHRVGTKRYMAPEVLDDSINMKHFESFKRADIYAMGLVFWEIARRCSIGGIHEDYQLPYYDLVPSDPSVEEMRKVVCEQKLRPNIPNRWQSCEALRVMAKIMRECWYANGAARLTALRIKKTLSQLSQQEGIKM
Text: as §1

[1] = 100 micromolar inhibitor concentration, 100 is no change

Compound | remaining activity at 100 µM (IKKe; [1]) | remaining activity at 100 µM (PAK2; [1]) | remaining activity at 100 µM (HIPK3; [1]) | remaining activity at 100 µM (TESK1; [1]) | remaining activity at 100 µM (TSSK1; [1]) | remaining activity at 100 µM (MINK1; [1]) | remaining activity at 100 µM (FGF-R1; [1]) | remaining activity at 100 µM (PAK6; [1]) | remaining activity at 100 µM (DAPK1; [1]) | residual kinase activity, IKKe (IKKe; [1]) | residual kinase activity, PAK2 (PAK2; [1]) | residual kinase activity, HIPK3 (HIPK3; [1]) | residual kinase activity, TESK1 (TESK1; [1]) | residual kinase activity, TSSK1 (TSSK1; [1]) | residual kinase activity, MINK1 (MINK1; [1]) | residual kinase activity, TGFBR1 (TGFBR1) | residual kinase activity, FGF-R1 (FGF-R1; [1]) | residual kinase activity, PAK6 (PAK6; [1]) | residual kinase activity, DAPK1 (DAPK1; [1]) | residual kinase activity, BRSK1 (BRSK1; [1]) | also measured
CC(=O)Nc1nc2cc(O)ccc2s1 [Compound 01-66, N-(5-hydroxybenzo[d]thiazol-2-yl)acetamide] | – | – | – | – | – | – | – | – | – | – | – | – | – | – | – | – | – | – | – | – | remaining activity at 100 µM (IKKe): 68%; remaining activity at 100 µM (PAK2): 93%; remaining activity at 100 µM (HIPK3): 37%; remaining activity at 100 µM (TESK1): 94%; remaining activity at 100 µM (TSSK1): 65%; remaining activity at 100 µM (MINK1): 48%; remaining activity at 100 µM (FGF-R1): 67%; remaining activity at 100 µM (PAK6): 90%; remaining activity at 100 µM (DAPK1): 44%; remaining activity at 100 µM (BRSK1): 48%
CC(=O)Nc1nc2ccc(O)cc2s1 [Compound 01-71] | 58% | 102% | 27% | 61% | 67% | 28% | 42% | 81% | 21% | – | – | – | – | – | – | – | – | – | – | – | remaining activity at 100 µM (BRSK1; [1]): 16%
O=C(Nc1nc2cc(O)ccc2s1)c1cccnc1 [Compound 03-33] | – | – | – | – | – | – | – | – | – | 81 | 114 | 102 | 102 | 75 | 51 | 88 | 102 | 119 | 82 | 83 | –
O=C(Nc1nc2cc(O)ccc2s1)c1ccccn1 [Compound 03-13] | – | – | – | – | – | – | – | – | – | 63 | 119 | 82 | 93 | 95 | 31 | 109 | 81 | 99 | 58 | 95 | –
CC(=O)Nc1nc2cc(C)ccc2s1 [Compound 03-76] | – | – | – | – | – | – | – | – | – | 89 | 102 | 79 | 106 | 79 | 63 | 98 | 106 | 108 | 82 | 75 | –
O=C(Nc1nc2ccc(O)cc2s1)c1ccncc1 [Compound 08-42] | – | – | – | – | – | – | – | – | – | 47 | 108 | 90 | 73 | 85 | 37 | 106 | 54 | 93 | 32 | 56 | –
O=C(Nc1nc2ccc(O)cc2s1)c1ccccn1 [Compound 03-12] | – | – | – | – | – | – | – | – | – | 78 | 104 | 84 | 84 | 66 | 48 | 117 | 16 | 101 | 25 | 63 | –
CC(=O)Nc1nc2ccc(C#N)cc2s1 [Compound 01-94] | 64% | 101% | 38% | 90% | 55% | 40% | 51% | 92% | 41% | – | – | – | – | – | – | – | – | – | – | – | remaining activity at 100 µM (BRSK1; [1]): 62%
CC(=O)Nc1nc2ccc(C(F)(F)F)cc2s1 [Compound 01-90] | 81% | 103% | 69% | 93% | 90% | 35% | 40% | 106% | 85% | – | – | – | – | – | – | – | – | – | – | – | remaining activity at 100 µM (BRSK1; [1]): 83%
